Assay: xn = mol fraction of the nth substance listed

CCCOCC(C)O (stereo not drawn) + CCO
viscosity [mPa·s], 101.33 kPa
Conditions | 298.15 K | 308.15 K | 318.15 K
x1 = 0.05 | 1.18 | 0.974 | 0.813
x1 = 0.1 | 1.272 | 1.041 | 0.863
x1 = 0.15 | 1.363 | 1.108 | 0.911
x1 = 0.2 | 1.448 | 1.171 | 0.96
x1 = 0.25 | 1.534 | 1.231 | 1.005
x1 = 0.3 | 1.612 | 1.288 | 1.046
x1 = 0.35 | 1.716 | 1.362 | 1.105
x1 = 0.4 | 1.79 | 1.417 | 1.142
x1 = 0.45 | 1.862 | 1.467 | 1.177
x1 = 0.5 | 1.928 | 1.513 | 1.21
x1 = 0.55 | 1.998 | 1.557 | 1.241
x1 = 0.6 | 2.056 | 1.602 | 1.274
x1 = 0.65 | 2.113 | 1.651 | 1.297
x1 = 0.7 | 2.168 | 1.674 | 1.322
x1 = 0.75 | 2.219 | 1.706 | 1.345
x1 = 0.8 | 2.264 | 1.734 | 1.368
x1 = 0.8498 | 2.307 | 1.766 | 1.389
x1 = 0.9 | 2.354 | 1.79 | 1.406
x1 = 0.95 | 2.369 | 1.815 | 1.414

C1COCO1 + CCCO
303.15 K, 101 kPa
Conditions | viscosity [mPa·s]
x1 = 0.08269 | 1.258
x1 = 0.1686 | 1.067
x1 = 0.258 | 0.9345
x1 = 0.351 | 0.8208
x1 = 0.4479 | 0.7339
x1 = 0.5489 | 0.6454
x1 = 0.6543 | 0.592
x1 = 0.7644 | 0.5684
x1 = 0.8795 | 0.5564

CCCCCCCCC + CCCCCC
298.15 K, 101.33 kPa
Conditions | viscosity [mPa·s]
x2 = 0.1073 | 0.6111
x2 = 0.21 | 0.5693
x2 = 0.2873 | 0.5367
x2 = 0.4024 | 0.5017
x2 = 0.5044 | 0.4527
x2 = 0.6074 | 0.42
x2 = 0.7035 | 0.3874
x2 = 0.804 | 0.3547
x2 = 0.9035 | 0.3272

C1COCO1 + O
viscosity [mPa·s], 101 kPa
Conditions | 298.15 K | 303.15 K | 308.15 K | 313.15 K | 318.15 K | 323.15 K
x1 = 0.01 | 0.754 | – | 0.6051 | – | 0.5251 | –
x1 = 0.026 | 0.813 | – | 0.6561 | – | 0.5671 | –
x1 = 0.03 | – | 0.8133 | – | 0.6555 | – | 0.5673
x1 = 0.041 | 0.8741 | – | 0.7144 | – | 0.6071 | –
x1 = 0.06 | – | 0.8766 | – | 0.7152 | – | 0.6053
x1 = 0.09 | – | 0.9304 | – | 0.7618 | – | 0.6297

CC(=O)c1ccccc1 + OCc1ccccc1
303.15 K, 101 kPa
Conditions | viscosity [mPa·s]
x1 = 0.0742 | 4.331
x1 = 0.2566 | 3.618
x1 = 0.3107 | 3.42
x1 = 0.4505 | 2.937
x1 = 0.528 | 2.685
x1 = 0.5727 | 2.544
x1 = 0.7494 | 2.036
x1 = 0.8383 | 1.82
x1 = 0.9234 | 1.638

CCC(O)CC + CCCCCCC
101 kPa
Conditions | viscosity [mPa·s]
293.4 K, x1 = 0.201 | 0.531
294 K, x1 = 0.026 | 0.466
294.1 K, x1 = 0.101 | 0.489
295.1 K, x1 = 0.5 | 0.734

C[n+]1cc([O-])on1 + O
313.15 K, 101 kPa
Conditions | viscosity [mPa·s]
x2 = 0.1304 | 4.405
x2 = 0.2625 | 3.634
x2 = 0.4242 | 2.894
x2 = 0.6104 | 2.178
x2 = 0.7384 | 1.687
x2 = 0.882 | 1.121
x2 = 0.9089 | 1.015
x2 = 0.9709 | 0.775
x2 = 0.9746 | 0.768

CC(=O)c1ccccc1 + c1ccccc1
298.15 K, 101 kPa
Conditions | viscosity [mPa·s]
x1 = 0.5 | 0.942
x1 = 0.75 | 1.27

ClC(Cl)C(Cl)(Cl)Cl + C1COCCO1
303.15 K, 101 kPa
Conditions | viscosity [mPa·s]
x2 = 0.0967 | 2.052
x2 = 0.1938 | 2.133
x2 = 0.2925 | 2.141
x2 = 0.3925 | 2.108
x2 = 0.4926 | 2.011
x2 = 0.5951 | 1.851
x2 = 0.6928 | 1.65
x2 = 0.795 | 1.463
x2 = 0.8962 | 1.289

FCC(F)(F)F + OCCOCCO
viscosity [mPa·s], 101.32 kPa
Conditions | x2 = 0.788 | x2 = 0.814 | x2 = 0.816 | x2 = 0.844 | x2 = 0.845 | x2 = 0.892 | x2 = 0.893
293.15 K | 12.4 | 14.3 | – | 16.7 | – | 21 | –
313.15 K | – | – | 6.78 | – | 7.29 | – | 8.26

C[N+](C)(C)CCO.O=C([O-])CC(=O)O + O
viscosity [mPa·s], 100 kPa
Conditions | x2 = 0.01 | x2 = 0.17 | x2 = 0.22 | x2 = 0.38 | x2 = 0.5 | x2 = 0.58 | x2 = 0.632 | x2 = 0.673 | x2 = 0.864
293.15 K | 12050 | 4381 | 3565 | 1377 | 622.1 | 312.8 | 206.3 | 145.4 | 14.3
298.15 K | 7430 | 2850 | 2316 | 941.2 | 438.7 | 227 | 152.2 | 108.9 | 11.9
303.15 K | 4675 | 1908 | 1563 | 651 | 317.1 | 168.5 | 114.7 | 83.2 | 9.9
308.15 K | 3076 | 1312 | 1084 | 467.9 | 234.5 | 127.7 | 88.2 | 64.8 | 8.4
313.15 K | 2089 | 924.5 | 770 | 343.9 | 177.1 | 98.6 | 69 | 51.3 | 7
318.15 K | 1453 | 666.7 | 559.7 | 257.6 | 136.3 | 77.5 | 54.9 | 41.2 | 6.2
323.15 K | 1034 | 491 | 415.2 | 199.7 | 106.8 | 61.8 | 44.4 | 33.6 | 5.4

CN(C)P(=O)(N(C)C)N(C)C + CCO
303.15 K, 101.3 kPa
Conditions | viscosity [mPa·s]
x1 = 0.1007 | 1.255
x1 = 0.2043 | 1.461
x1 = 0.2959 | 1.627
x1 = 0.3983 | 1.807
x1 = 0.5079 | 2.005
x1 = 0.5998 | 2.18
x1 = 0.698 | 2.362
x1 = 0.8012 | 2.557
x1 = 0.9052 | 2.75

O=S(Cl)Cl + [Cl-].[Cl-].[Cl-].[Cl-].[Sn+4]
298.15 K, 101 kPa
Conditions | viscosity [mPa·s]
x1 = 0.402 | 0.7259
x1 = 0.517 | 0.7057
x1 = 0.803 | 0.6524

Source: the CheMixHub viscosity set
